According to patent US20250120420A1, “FEED ADDITIVE FOR IMPROVING ANIMAL PERFORMANCE, DIGESTION AND INTESTINAL HEALTH AND RELATED METHODS” (priority 2023, published 2025):
Marks after values point to notes of the source that are not given here.

Columns and labels:
laying hens = test: Laying hen trial, two-by-two factorial xylanase / COS, 60 days; format: in vivo, HiSex laying hens
Experimental: The researchers combined xylanase and COS in a two-by-two factorial design study in order to investigate the impact of combining xylanase and COS on animal intestinal health, and specifically the microbiome. Materials and Methods: The effects of dietary supplementation of a combination of xylanase/COS (prototype or “[…]”) were evaluated in a laying hen trial over a duration of 60 days. A total of 40 HiSex laying hens were used in this experiment, with four diets and 10 replicates per diet. Dosages were determined based on extrapolation of the in vitro cell culture data. Laying hens were allocated into four different groups: (T1) Control; […] (T3) xylanase alone, using […] Industries, Inc.); (T4) and a combination of xylanase and COS. The diets were based on wheat ( 55%), soybean and sunflower meal.

broilers = test: Broiler trial, xylanase/COS dose response, 35 days, zootechnical performance; format: in vivo
Experimental: The researchers performed a study in growing poultry, in which xylanase and COS were combined in a dose response study in order to study the impact of combining xylanase and COS on poultry growth.
Materials and Methods: The effects of dietary supplementation of a combination of xylanase/COS were evaluated in a broiler trial over a duration of 35 days. A total of 1200 Ross broilers were used in this experiment, with five diets and 12 replicates per diet.

[1] = Grower phase, 15-35 days of age
[2] = Starter phase, 0-14 days of age

beta 1-4, endo-xylanase enzyme [Xygest HT]
Albumin Height (laying hens; End of Phase 1): 7.1 a mm | Egg Shell Thickness (laying hens; End of Phase 1): 0.397 a mm | Haugh Unit (HU) (laying hens; End of Phase 1): 84.3 a | Shell Breaking Strength (laying hens; End of Phase 1): 4.6 a kg · force | Yolk Color Score (DSM method) (laying hens; End of Phase 1): 5.3 a | Yolk Diameter (laying hens; End of Phase 1): 43.2 mm | Yolk Height (laying hens; End of Phase 1): 18.7 mm | Yolk Index (laying hens; End of Phase 1): 0.44 | Albumin Height (laying hens; End of Phase 2): 7.9 a mm | Egg Shell Thickness (laying hens; End of Phase 2): 0.428 a mm | Haugh Unit (HU) (laying hens; End of Phase 2): 88.7 a | Shell Breaking Strength (laying hens; End of Phase 2): 4.7 ab kg · force | Yolk Color Score (DSM method) (laying hens; End of Phase 2): 6.7 a | Yolk Diameter (laying hens; End of Phase 2): 44.2 mm | Yolk Height (laying hens; End of Phase 2): 18.3 ab mm | Yolk Index (laying hens; End of Phase 2): 0.42 a | Egg mass, % Improvement compared to the control treatment (laying hens; laying hens, 60 days): 0.91% | Egg weight, % Improvement compared to the control treatment (laying hens; laying hens, 60 days): 0.58% | FCR, % Improvement compared to the control treatment (laying hens; laying hens, 60 days): −0.07% | laying percentage compared to the control group (in words) (laying hens; laying hens, 60 days): significant increase | nutrient digestibility (in words, FIG. 6-11) (laying hens; laying hens, 60 days): Even a better effect | ADFI (broilers; Global trial, 0-35 days of age): 87.2 g/day | FCR (broilers; Global trial, 0-35 days of age): 1.51^ab | M-ADFI (mortality adjusted mean daily feed intake) (broilers; Global trial, 0-35 days of age): 86.8 g/day | M-ADG (mortality adjusted mean daily gain) (broilers; Global trial, 0-35 days of age): 57.5^a g/d | M-FCR (Mortality adjusted feed:gain) (broilers; Global trial, 0-35 days of age): 1.51^ab | ADFI (broilers; [1]): 123.7 g/day | ADG (broilers; [1]): 80.0^a g/d | FCR (broilers; [1]): 1.55^ab | M-ADFI (mortality adjusted mean daily feed intake) (broilers; [1]): 123.3 g/day | M-ADG (mortality adjusted mean daily gain) (broilers; [1]): 79.9^a g/d | M-FCR (Mortality adjusted feed:gain) (broilers; [1]): 1.54^ab | ADFI (broilers; [2]): 32.9 g/day | ADG (broilers; [2]): 24.5 g/day | FCR (broilers; [2]): 1.35 | M-ADFI (mortality adjusted mean daily feed intake) (broilers; [2]): 32.8 g/day | M-ADG (mortality adjusted mean daily gain) (broilers; [2]): 24.4 g/day | M-FCR (Mortality adjusted feed:gain) (broilers; [2]): 1.34^ab | Body weight (broilers; broilers, 14 days of age): 386 g
